Structures are written as SMILES.

For experiment [1], the target named is T1, human MER (528-end) (Homo sapiens, UniProt Q12866).
T1 construct: human MER (528-end); purchased Carnabio, Japan
T1 sequence (Q12866 528-999 limits assumed): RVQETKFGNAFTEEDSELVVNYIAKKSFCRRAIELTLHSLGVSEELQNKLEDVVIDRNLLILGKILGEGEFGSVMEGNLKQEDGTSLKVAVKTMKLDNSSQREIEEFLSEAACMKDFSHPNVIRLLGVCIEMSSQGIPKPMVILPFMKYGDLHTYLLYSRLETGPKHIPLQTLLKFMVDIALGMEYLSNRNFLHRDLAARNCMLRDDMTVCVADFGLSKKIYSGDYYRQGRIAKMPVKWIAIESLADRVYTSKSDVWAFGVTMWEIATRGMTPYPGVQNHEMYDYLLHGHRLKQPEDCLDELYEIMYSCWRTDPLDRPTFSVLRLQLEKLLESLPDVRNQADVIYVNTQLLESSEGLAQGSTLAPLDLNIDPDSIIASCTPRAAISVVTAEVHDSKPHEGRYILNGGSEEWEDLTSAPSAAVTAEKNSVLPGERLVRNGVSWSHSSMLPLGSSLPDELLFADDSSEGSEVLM
As to the kind of experiment: HTRF kinase activity biochemical assay, MER.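 Also: phosphorylation of a biotin-tagged tyrosine kinase substrate detected by Eu3+-cryptate antibody and streptavidin-XL665 time-resolved fluorescence, read after 1 h at room temperature.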 The conditions noted are these: recombinant kinase, 10 uM ATP, 30 minutes pre-incubation; read-out: HTRF MERTK IC50. Background: Time-resolved FRET reads energy transfer from a long-lived donor to a nearby acceptor.

Experiment [2] has as its target T2, human AXL (473-end) (Homo sapiens, UniProt P30530).
T2 construct: human AXL (473-end); purchased SignalChem, Canada
T2 sequence (P30530 473-894 limits assumed): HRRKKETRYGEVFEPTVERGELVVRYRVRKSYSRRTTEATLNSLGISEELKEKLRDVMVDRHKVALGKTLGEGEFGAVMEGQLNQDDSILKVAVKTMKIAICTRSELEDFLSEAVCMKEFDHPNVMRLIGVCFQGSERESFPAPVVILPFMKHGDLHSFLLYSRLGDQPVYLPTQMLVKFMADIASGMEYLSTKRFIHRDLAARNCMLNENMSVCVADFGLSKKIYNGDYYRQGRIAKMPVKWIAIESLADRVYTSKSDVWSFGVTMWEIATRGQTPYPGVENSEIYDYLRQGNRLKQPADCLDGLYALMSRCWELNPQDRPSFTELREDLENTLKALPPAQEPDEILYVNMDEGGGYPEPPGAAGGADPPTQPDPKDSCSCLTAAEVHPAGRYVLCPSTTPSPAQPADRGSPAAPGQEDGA
As to the kind of experiment: HTRF kinase activity biochemical assay, AXL.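 Also: phosphorylation of a biotinylated tyrosine kinase substrate detected via Eu3+-cryptate anti-TK antibody and streptavidin-XL665, fluorescence read after a 1 h incubation at room temperature.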 The note with it: recombinant kinase, 10 uM ATP, 30 minutes pre-incubation; read-out: HTRF AXL IC50.

Experiment [3] deals with T3, TYRO3 (455-end) (Homo sapiens, UniProt Q06418).
T3 construct: TYRO3 (455-end); purchased SignalChem, Canada
T3 sequence (Q06418 455-890 limits assumed): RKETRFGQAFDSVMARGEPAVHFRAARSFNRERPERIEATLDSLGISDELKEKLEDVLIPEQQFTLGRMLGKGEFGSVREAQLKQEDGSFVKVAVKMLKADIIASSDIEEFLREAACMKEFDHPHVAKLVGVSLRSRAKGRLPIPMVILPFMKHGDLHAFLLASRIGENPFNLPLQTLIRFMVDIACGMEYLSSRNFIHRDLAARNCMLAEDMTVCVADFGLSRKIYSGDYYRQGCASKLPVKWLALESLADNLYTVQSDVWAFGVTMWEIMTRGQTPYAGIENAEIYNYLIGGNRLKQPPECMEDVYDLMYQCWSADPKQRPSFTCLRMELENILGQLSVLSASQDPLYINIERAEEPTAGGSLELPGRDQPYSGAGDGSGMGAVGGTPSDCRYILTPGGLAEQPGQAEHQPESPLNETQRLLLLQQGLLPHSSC
As to the kind of experiment: HTRF kinase activity biochemical assay, TYRO3.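 Also: biotinylated tyrosine kinase substrate phosphorylation detected via streptavidin-XL665 and Eu3+-cryptate anti-phospho antibody time-resolved fluorescence, read after 1 h detection at room temperature, 384-well format.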 The conditions noted are these: recombinant kinase, 10 uM ATP, 30 minutes pre-incubation; read-out: HTRF TYRO IC50.

In general, IC50 refers to the point on the concentration scale where inhibition reaches its midpoint. On to `Cc1cnc(COc2ccc3nc(N4CC(c5cnc(Nc6cnn(C)c6)c(C(N)=O)n5)C4)oc3c2)s1` [Example 82, 3-[(1-methyl-1H-pyrazol-4-yl)amino]-6-(1-{6-[(5-methyl-1,3-thiazol-2-yl)methoxy]-1,3-benzoxazol-2-yl}azetidin-3-yl)pyrazine-2-carboxamide], for which the IC50 is below 0.001 µM in experiment [1], 0.003 µM in experiment [2] and 0.15 µM in experiment [3].
On the same counts, the results for `CN(C)C(=O)COc1ccc2nc(N3CC(c4ccc(Nc5cnn(C)c5)c(C(N)=O)n4)C3)oc2c1` [Example 83, 6-(1-{6-[2-(dimethylamino)-2-oxoethoxy]-1,3-benzoxazol-2-yl}azetidin-3-yl)-3-[(1-methyl-1H-pyrazol-4-yl)amino]pyridine-2-carboxamide] are 0.004 µM, 0.026 µM and 6.8 µM.
On the same counts, the results for `Cn1cc(Nc2ccc(C3CN(c4nc5ccc(OCCC(C)(C)O)cc5o4)C3)nc2C(N)=O)cn1` [Example 84, 6-{1-[6-(3-hydroxy-3-methylbutoxy)-1,3-benzoxazol-2-yl]azetidin-3-yl}-3-[(1-methyl-1H-pyrazol-4-yl)amino]pyridine-2-carboxamide] are 0.002 µM, 0.007 µM and 1.37 µM.
The corresponding values for `Cn1cc(Nc2ccc(C3CN(c4nc5ccc(O)cc5o4)C3)nc2C(N)=O)cn1` [Example 84A, 6-[1-(6-hydroxy-1,3-benzoxazol-2-yl)azetidin-3-yl]-3-[(1-methyl-1H-pyrazol-4-yl)amino]pyridine-2-carboxamide] are 0.014 µM, 0.033 µM and 2.07 µM.
As to `Cc1nnc(COc2ccc3nc(N4CC(c5cnc(Nc6cnn(C)c6)c(C(N)=O)n5)C4)oc3c2)o1` [Example 86, 6-(1-{6-[(5-methyl-1,3,4-oxadiazol-2-yl)methoxy]-1,3-benzoxazol-2-yl}azetidin-3-yl)-3-[(1-methyl-1H-pyrazol-4-yl)amino]pyrazine-2-carboxamide], the IC50 in experiment [1] came out at 0.005 µM; in experiment [2], 0.011 µM; in experiment [3], 0.063 µM.
The corresponding values for `Cn1cc(Nc2ncc(C3CN(c4nc5ccc(OCC(=O)C6CC6)cc5o4)C3)nc2C(N)=O)cn1` [Example 87, 6-{1-[6-(2-cyclopropyl-2-oxoethoxy)-1,3-benzoxazol-2-yl]azetidin-3-yl}-3-[(1-methyl-1H-pyrazol-4-yl)amino]pyrazine-2-carboxamide] are 0.001 µM, 0.005 µM and 0.33 µM.
The corresponding values for `Cn1cc(Nc2ncc(C3CN(c4nc5ccc(-c6ccc(O)cc6)cc5o4)C3)nc2C(N)=O)cn1` [Example 88, 6-{1-[6-(4-hydroxyphenyl)-1,3-benzoxazol-2-yl]azetidin-3-yl}-3-[(1-methyl-1H-pyrazol-4-yl)amino]pyrazine-2-carboxamide] are below 0.001 µM, 0.003 µM and 0.051 µM.
The corresponding values for `Cn1cc(Nc2ncc(C3CN(c4nc5ccc(-c6ccc(OCCO)cc6)cc5o4)C3)nc2C(N)=O)cn1` [Example 89, 6-(1-{6-[4-(2-hydroxyethoxy)phenyl]-1,3-benzoxazol-2-yl}azetidin-3-yl)-3-[(1-methyl-1H-pyrazol-4-yl)amino]pyrazine-2-carboxamide] are 0.001 µM, 0.006 µM and 0.26 µM.
On to `Cn1cc(Nc2ncc(C3CN(c4nc5ccc(-c6cnn(CCO)c6)cc5o4)C3)nc2C(N)=O)cn1` [Example 90, 6-(1-{6-[1-(2-hydroxyethyl)-1H-pyrazol-4-yl]-1,3-benzoxazol-2-yl}azetidin-3-yl)-3-[(1-methyl-1H-pyrazol-4-yl)amino]pyrazine-2-carboxamide], for which the results for the IC50 in experiment [1], in experiment [2] and in experiment [3] were 0.002 µM, 0.004 µM and 0.88 µM, respectively.
On the same counts, the results for `COCCn1cc(-c2ccc3nc(N4CC(c5cnc(Nc6cnn(C)c6)c(C(N)=O)n5)C4)oc3c2)cn1` [Example 91, 6-(1-{6-[1-(2-methoxyethyl)-1H-pyrazol-4-yl]-1,3-benzoxazol-2-yl}azetidin-3-yl)-3-[(1-methyl-1H-pyrazol-4-yl)amino]pyrazine-2-carboxamide] are 0.002 µM, 0.004 µM and 1.43 µM.
On the same counts, the results for `Cn1cc(Nc2ncc(C3CN(c4nc5ccc(-c6cnn(C)c6)cc5o4)C3)nc2C(N)=O)cn1` [Example 92, 3-[(1-methyl-1H-pyrazol-4-yl)amino]-6-{1-[6-(1-methyl-1H-pyrazol-4-yl)-1,3-benzoxazol-2-yl]azetidin-3-yl}pyrazine-2-carboxamide] are below 0.001 µM, 0.003 µM and 0.08 µM.
The corresponding values for `Cn1cc(Nc2ncc(C3CN(c4nc5ccc(OCc6cn[nH]c6)cc5o4)C3)nc2C(N)=O)cn1` [Example 93, 3-[(1-methyl-1H-pyrazol-4-yl)amino]-6-(1-{6-[(1H-pyrazol-4-yl)methoxy]-1,3-benzoxazol-2-yl}azetidin-3-yl)pyrazine-2-carboxamide] are below 0.001 µM, 0.002 µM and 0.044 µM.
For `CC(C)(O)CCOc1ccc2nc(N3CC(c4cnc(Nc5cnn(C(C)(C)C)c5)c(C(N)=O)n4)C3)oc2c1` [Example 94, 3-[(1-tert-butyl-1H-pyrazol-4-yl)amino]-6-{1-[6-(3-hydroxy-3-methylbutoxy)-1,3-benzoxazol-2-yl]azetidin-3-yl}pyrazine-2-carboxamide], the IC50 is below 0.001 µM in experiment [1], 0.003 µM in experiment [2] and 0.91 µM in experiment [3].
The corresponding values for `Cn1cc(Nc2ncc(C3CN(c4nc5ccc(OCCC(C)(C)OC(=O)CN)cc5o4)C3)nc2C(N)=O)cn1` [Example 95, 4-{[2-(3-{6-carbamoyl-5-[(1-methyl-1H-pyrazol-4-yl)amino]pyrazin-2-yl}azetidin-1-yl)-1,3-benzoxazol-6-yl]oxy}-2-methylbutan-2-yl glycinate] are below 0.001 µM, 0.003 µM and 0.28 µM.
On the same counts, the results for `Cn1cc(Nc2ncc(C3CN(c4nc5ccc(OCCC(C)(C)OC(=O)CNC(=O)OC(C)(C)C)cc5o4)C3)nc2C(N)=O)cn1` [Example 95A, 4-{[2-(3-f{6-carbamoyl-5-[(1-methyl-1H-pyrazol-4-yl)amino]pyrazin-2-yl}azetidin-1-yl)-1,3-benzoxazol-6-yl]oxy}-2-methylbutan-2-yl [(tert-butoxycarbonyl)amino]acetate] are below 0.001 µM, 0.003 µM and 0.46 µM.
On the same counts, the results for `CC(C)(O)CCOc1ccc2nc(N3CC(c4cnc(Nc5cnn(CC(C)(C)O)c5)c(C(N)=O)n4)C3)oc2c1` [Example 96, 6-{1-[6-(3-hydroxy-3-methylbutoxy)-1,3-benzoxazol-2-yl]azetidin-3-yl}-3-{[1-(2-hydroxy-2-methylpropyl)-1H-pyrazol-4-yl]amino}pyrazine-2-carboxamide] are 0.003 µM, 0.012 µM and 1.61 µM.
Take `CC(C)(O)CCOc1ccc2nc(N3CC(c4cnc(Nc5cnn(COCC[Si](C)(C)C)c5)c(C(N)=O)n4)C3)oc2c1` [Example 96A, 6-{1-[6-(3-hydroxy-3-methylbutoxy)-1,3-benzoxazol-2-yl]azetidin-3-yl}-3-[(1-{[2-(trimethylsilyl)ethoxy]methyl}-1H-pyrazol-4-yl)amino]pyrazine-2-carboxamide]: the IC50 in experiment [1] was found to be 0.011 µM; in experiment [2], 0.031 µM; in experiment [3], 1.39 µM.
